Data published in PubChem BioAssay (NCI).
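Tested at 5 concentrations; 48 h exposure; 96-well plates; endpoints linearly interpolated, else capped at highest concentration. TGI denotes the concentration required for complete inhibition of growth.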

Key:
Experiment in all cases: NCI anticancer screen, dose series, 48 h
K-562 leukemia = system: K-562 leukemia
ACHN renal = system: ACHN renal
LOX IMVI melanoma = system: LOX IMVI melanoma
OVCAR-5 ovarian = system: OVCAR-5 ovarian
MDA-N = system: MDA-N
HOP-92 NSCLC = system: HOP-92 NSCLC
IGROV1 ovarian = system: IGROV1 ovarian
SR leukemia = system: SR leukemia
SN12C renal = system: SN12C renal
HS 578T breast = system: HS 578T breast
HOP-62 NSCLC = system: HOP-62 NSCLC
M14 melanoma = system: M14 melanoma
SNB-75 CNS = system: SNB-75 CNS
BT-549 breast = system: BT-549 breast
UO-31 renal = system: UO-31 renal
UACC-257 melanoma = system: UACC-257 melanoma
NCI-H226 lung = system: NCI-H226 lung
T-47D breast = system: T-47D breast
786-0 renal = system: 786-0 renal
HCT-15 colon = system: HCT-15 colon
EKVX NSCLC = system: EKVX NSCLC
A549 NSCLC = system: A549 NSCLC
CCRF-CEM leukemia = system: CCRF-CEM leukemia
RXF 393 renal = system: RXF 393 renal
DU-145 prostate = system: DU-145 prostate
MCF7 breast = system: MCF7 breast
A498 renal = system: A498 renal
NCI-H23 lung = system: NCI-H23 lung
KM12 colon = system: KM12 colon
SK-MEL-5 melanoma = system: SK-MEL-5 melanoma
RPMI-8226 leukemia = system: RPMI-8226 leukemia
SF-268 CNS = system: SF-268 CNS
COLO 205 colon = system: COLO 205 colon
SF-539 CNS = system: SF-539 CNS
SF-295 CNS = system: SF-295 CNS
HCT-116 colon = system: HCT-116 colon
NCI/ADR-RES ovarian = system: NCI/ADR-RES ovarian
SW-620 colon = system: SW-620 colon
SK-OV-3 ovarian = system: SK-OV-3 ovarian
MALME-3M melanoma = system: MALME-3M melanoma
HT29 colon = system: HT29 colon
OVCAR-8 ovarian = system: OVCAR-8 ovarian
MDA-MB-435 = system: MDA-MB-435
SK-MEL-28 melanoma = system: SK-MEL-28 melanoma
PC-3 prostate = system: PC-3 prostate
CAKI-1 renal = system: CAKI-1 renal
MOLT-4 leukemia = system: MOLT-4 leukemia
NCI-H522 lung = system: NCI-H522 lung
TK-10 renal = system: TK-10 renal
OVCAR-4 ovarian = system: OVCAR-4 ovarian
UACC-62 melanoma = system: UACC-62 melanoma
HL-60(TB) leukemia = system: HL-60(TB) leukemia
U251 CNS = system: U251 CNS
SK-MEL-2 melanoma = system: SK-MEL-2 melanoma
OVCAR-3 ovarian = system: OVCAR-3 ovarian
NCI-H460 lung = system: NCI-H460 lung
MDA-MB-231 breast = system: MDA-MB-231 breast
SNB-19 CNS = system: SNB-19 CNS
HCC-2998 colon = system: HCC-2998 colon

`O=C(O)c1cc(CCc2cc(O)ccc2O)ccc1O` showed a TGI (K-562 leukemia) of over 100 µM, a TGI (ACHN renal) of over 100 µM and a TGI (LOX IMVI melanoma) of over 100 µM. The TGI (OVCAR-5 ovarian) was over 100 µM, the TGI (MDA-N) was 27.1 µM and the TGI (HOP-92 NSCLC) was over 100 µM. For the same molecule, the TGI (IGROV1 ovarian) was over 100 µM, the TGI (SR leukemia) was over 100 µM and the TGI (SN12C renal) was over 100 µM. It also gave a TGI (HS 578T breast) of over 100 µM, a TGI (HOP-62 NSCLC) of over 100 µM and a TGI (M14 melanoma) of over 100 µM. For the same molecule, the TGI (SNB-75 CNS) was over 100 µM, the TGI (BT-549 breast) was over 100 µM and the TGI (UO-31 renal) was over 100 µM. The TGI (UACC-257 melanoma) was over 100 µM, the TGI (NCI-H226 lung) was over 100 µM and the TGI (T-47D breast) was over 100 µM. For the same molecule, the TGI (786-0 renal) was over 100 µM, the TGI (HCT-15 colon) was over 100 µM and the TGI (EKVX NSCLC) was over 100 µM. It also gave a TGI (A549 NSCLC) of over 100 µM, a TGI (CCRF-CEM leukemia) of 71.4 µM and a TGI (RXF 393 renal) of over 100 µM. The TGI (DU-145 prostate) was over 100 µM, the TGI (MCF7 breast) was over 100 µM and the TGI (A498 renal) was over 100 µM. The TGI (NCI-H23 lung) was over 100 µM, the TGI (KM12 colon) was over 100 µM and the TGI (SK-MEL-5 melanoma) was over 100 µM. For the same molecule, the TGI (RPMI-8226 leukemia) was over 100 µM, the TGI (SF-268 CNS) was over 100 µM and the TGI (COLO 205 colon) was over 100 µM. It also gave a TGI (SF-539 CNS) of over 100 µM, a TGI (SF-295 CNS) of over 100 µM and a TGI (HCT-116 colon) of over 100 µM. For the same molecule, the TGI (NCI/ADR-RES ovarian) was over 100 µM, the TGI (SW-620 colon) was over 100 µM and the TGI (SK-OV-3 ovarian) was over 100 µM. The TGI (MALME-3M melanoma) was over 100 µM, the TGI (HT29 colon) was over 100 µM and the TGI (OVCAR-8 ovarian) was over 100 µM. For the same molecule, the TGI (MDA-MB-435) was over 100 µM, the TGI (SK-MEL-28 melanoma) was over 100 µM and the TGI (PC-3 prostate) was over 100 µM. It also gave a TGI (CAKI-1 renal) of over 100 µM, a TGI (MOLT-4 leukemia) of over 100 µM and a TGI (NCI-H522 lung) of over 100 µM. The TGI (TK-10 renal) was over 100 µM, the TGI (OVCAR-4 ovarian) was over 100 µM and the TGI (UACC-62 melanoma) was over 100 µM. For the same molecule, the TGI (HL-60(TB) leukemia) was 77.7 µM, the TGI (U251 CNS) was over 100 µM and the TGI (SK-MEL-2 melanoma) was over 100 µM. The TGI (OVCAR-3 ovarian) was over 100 µM and the TGI (NCI-H460 lung) was over 100 µM.
Work on `N#C/C(C(=S)NCc1ccccc1)=C(/N)N1CCCC1` yielded a TGI (K-562 leukemia) of over 100 µM, a TGI (ACHN renal) of over 100 µM and a TGI (LOX IMVI melanoma) of over 100 µM. The TGI (OVCAR-5 ovarian) was over 100 µM, the TGI (MDA-N) was over 100 µM and the TGI (HOP-92 NSCLC) was over 100 µM. The TGI (IGROV1 ovarian) was over 100 µM, the TGI (MDA-MB-231 breast) was over 100 µM and the TGI (SR leukemia) was over 100 µM. It also gave a TGI (SN12C renal) of over 100 µM, a TGI (HS 578T breast) of over 100 µM and a TGI (HOP-62 NSCLC) of over 100 µM. For the same molecule, the TGI (M14 melanoma) was over 100 µM, the TGI (UO-31 renal) was over 100 µM and the TGI (UACC-257 melanoma) was over 100 µM. The TGI (NCI-H226 lung) was over 100 µM, the TGI (T-47D breast) was over 100 µM and the TGI (786-0 renal) was over 100 µM. It also gave a TGI (HCT-15 colon) of over 100 µM, a TGI (EKVX NSCLC) of over 100 µM and a TGI (A549 NSCLC) of over 100 µM. The TGI (CCRF-CEM leukemia) was over 100 µM, the TGI (RXF 393 renal) was over 100 µM and the TGI (DU-145 prostate) was over 100 µM. It also gave a TGI (A498 renal) of over 100 µM, a TGI (NCI-H23 lung) of over 100 µM and a TGI (KM12 colon) of over 100 µM. It also gave a TGI (SK-MEL-5 melanoma) of over 100 µM, a TGI (RPMI-8226 leukemia) of over 100 µM and a TGI (SF-268 CNS) of over 100 µM. The TGI (COLO 205 colon) was over 100 µM, the TGI (SF-539 CNS) was over 100 µM and the TGI (SF-295 CNS) was over 100 µM. It also gave a TGI (HCT-116 colon) of over 100 µM, a TGI (NCI/ADR-RES ovarian) of over 100 µM and a TGI (SNB-19 CNS) of over 100 µM. It also gave a TGI (SW-620 colon) of over 100 µM, a TGI (SK-OV-3 ovarian) of over 100 µM and a TGI (MALME-3M melanoma) of over 100 µM. For the same molecule, the TGI (HT29 colon) was over 100 µM, the TGI (OVCAR-8 ovarian) was over 100 µM and the TGI (MDA-MB-435) was over 100 µM. It also gave a TGI (SK-MEL-28 melanoma) of over 100 µM, a TGI (PC-3 prostate) of over 100 µM and a TGI (CAKI-1 renal) of over 100 µM. The TGI (MOLT-4 leukemia) was over 100 µM, the TGI (NCI-H522 lung) was over 100 µM and the TGI (TK-10 renal) was over 100 µM. For the same molecule, the TGI (OVCAR-4 ovarian) was over 100 µM, the TGI (UACC-62 melanoma) was over 100 µM and the TGI (HL-60(TB) leukemia) was over 100 µM. It also gave a TGI (U251 CNS) of over 100 µM, a TGI (SK-MEL-2 melanoma) of over 100 µM and a TGI (HCC-2998 colon) of over 100 µM. For the same molecule, the TGI (OVCAR-3 ovarian) was over 100 µM and the TGI (NCI-H460 lung) was over 100 µM.
